Laboratory results taken from patent publication US20240366770A1, “DEGRADATION OF BRUTON'S TYROSINE KINASE (BTK) BY CONJUGATION OF BTK INHIBITORS WITH E3 LIGASE LIGAND AND METHODS OF USE” (BeiGene Switzerland GmbH, priority 2021, published 2024).

Legend:
HEK-293 cells = test: HEK-293 cytotoxicity detection (CellTiter-Glo); assay type: cell-based; conditions: Homo sapiens; HEK-293 cells, 72 h incubation, CellTiter-Glo luminescence, IC50 of cell proliferation inhibition; read-out: HEK293
Protocol: (§1) HEK-293 cells were treated with compounds diluted in 0.2% DMSO, dilution was done according to the following protocol: (1) making 500× stock solution in DMSO from 5 mM by 4-fold dilution, total 8 doses were included; (2) making 2× solution in cell culture medium by transferring 0.5 ul 500× stock solution into 125 μl medium; (3) adding 50 μl of 2× solution to cells for incubation of 72 h.
25 μl of the CellTiter-Glo®Reagent [(Promega) -Cat No. G7572] was added to each well in the 96-well plate. The contents were mixed for 2 minutes on an orbital shaker to induce cell lysis. The plate was then allowed to incubate at room temperature for 10 minutes to stabilize luminescent signal. Luminescence was recorded on BMG PheraStar with luminescence protocol.
The IC50 value of a compound can be obtained by fitting the following equation
(§2) Wherein, X and Y are known values, and IC50, Hillslope, Top and Bottom are the parameters obtained by fitting with software. Y is the inhibition percentage (calculated from the equation), X is the concentration of the compound; IC50 is the concentration of the compound when the 50% inhibition is reached. The smaller the IC50 value is, the stronger the inhibitory ability of the compound is. Vice versa, the higher the IC50 value is, the weaker the ability the inhibitory ability of the compound is; Hillslope represents the slope of the fitted curve, generally around 1 *; Bottom represents the minimum value of the curve obtained by data fitting, which is generally 0%±20%; Top represents the maximum value of the curve obtained by data fitting, which is generally 100%±20%. The experimental data were fitted by calculating and analyzing with Dotmatics data analysis software.

BTK = target: T1, BTK (Homo sapiens, UniProt Q06187); test: BTK degradation in TMD-8 cells (HTRF assay); assay type: cell-based; conditions: 6 h treatment, IC50 (DC50) of BTK degradation
T1 construct: High control=Cell group with added DMSO and without compound, indicating microplate readings without BTK degradation; endogenous in cells; host or cells: TMD-8
T1 sequence (Q06187 whole entry): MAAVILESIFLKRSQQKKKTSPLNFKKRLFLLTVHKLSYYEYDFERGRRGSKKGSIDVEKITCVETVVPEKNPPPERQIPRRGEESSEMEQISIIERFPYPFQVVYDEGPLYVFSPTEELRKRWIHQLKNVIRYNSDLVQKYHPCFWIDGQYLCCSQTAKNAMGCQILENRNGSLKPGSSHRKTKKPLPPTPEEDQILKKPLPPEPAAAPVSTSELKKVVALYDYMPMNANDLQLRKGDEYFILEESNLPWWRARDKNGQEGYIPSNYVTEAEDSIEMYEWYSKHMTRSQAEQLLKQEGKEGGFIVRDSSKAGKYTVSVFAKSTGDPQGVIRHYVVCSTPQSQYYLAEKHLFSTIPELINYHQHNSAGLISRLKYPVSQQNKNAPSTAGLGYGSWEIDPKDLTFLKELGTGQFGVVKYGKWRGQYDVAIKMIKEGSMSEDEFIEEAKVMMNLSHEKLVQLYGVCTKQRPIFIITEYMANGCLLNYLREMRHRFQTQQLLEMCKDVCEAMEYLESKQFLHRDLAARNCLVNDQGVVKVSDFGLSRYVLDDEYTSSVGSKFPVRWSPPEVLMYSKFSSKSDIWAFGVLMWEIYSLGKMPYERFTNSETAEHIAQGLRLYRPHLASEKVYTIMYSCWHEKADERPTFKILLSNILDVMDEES
Protocol: as §1, with “TMD-8 cells” for “HEK-293 cells”, “from 1” for “from 5”, “by 6-fold” for “by 4-fold”, “0.5 μl” for “0.5 ul”, “adding 15” for “adding 50”, “of 6” for “of 72”
After 6 h treatment, 10 μl 4× lysis buffer was added to each well; the plate was sealed and incubated for 30 min at room temperature on a plate shaker; Once the cells was lysed, 16 μL of cell lysate were transferred to a PE 384-well HTRF detection plate; 4 μL of pre-mixed HTRF antibodies were added to each well; the plate was covered with a plate sealer, and then spinned at 1000 rpm for 1 min, then incubated overnight at room temperature; the results were read on BMG PheraStar with HTRF protocol (337 nm-665 nm-620 nm).
The IC50 (DC50) value of a compound can be obtained by fitting the following equation
as §2, with “wherein,” for “Wherein,”

Row | Compound | IC50 (HEK-293 cells) | DC50 (BTK)
1 | Cc1cc(-c2ncnc3[nH]c4cc(C5CCN(CC6CCN(c7ccc(N8CCC(=O)NC8=O)cc7)CC6)CC5)cnc4c23)ccc1[C@@H](C)NC(=O)c1nc(C(C)(C)C)no1 [Example 38, (R)-3-(tert-butyl)-N-(1-(4-(7-(1-((1-(4-(2,4-dioxotetrahydropyrimidin-1(2H)-yl)phenyl)piperidin-4-yl)methyl)piperidin-4-yl)-9H-pyrido[2′,3′:4,5]pyrrolo[2,3-d]pyrimidin-4-yl)-2-methylphenyl)ethyl)-1,2,4-oxadiazole-5-carboxamide] | 3460 nM | 0.395 nM
2 | Cc1c([C@@H](C)NC(=O)c2noc(C(C)(C)C)n2)ccc(-c2ncnc3[nH]c4cc(N5CCN(Cc6ccc7c(c6)C(C)(C)C(=O)N7C6CCC(=O)NC6=O)CC5)ccc4c23)c1F (stereo partly drawn) [Example 86, 5-(tert-butyl)-N-((1R)-1-(4-(7-(4-((1-(2,6-dioxopiperidin-3-yl)-3,3-dimethyl-2-oxoindolin-5-yl)methyl)piperazin-1-yl)-9H-pyrimido[4,5-b]indol-4-yl)-3-fluoro-2-methylphenyl)ethyl)-1,2,4-oxadiazole-3-carboxamide] | > 10000 nM | > 2000 nM
3 | Cc1cc2c(cc1N1CCN(CC3CCN(c4ccc(N5CCC(=O)NC5=O)cc4)CC3)CC1)[nH]c1ncnc(-c3ccc([C@@H](C)NC(=O)c4noc(C(C)(C)C)n4)c(C)c3F)c12 [Example 45, (R)-5-(tert-butyl)-N-(1-(4-(7-(4-((1-(4-(2,4-dioxotetrahydropyrimidin-1(2H)-yl)phenyl)piperidin-4-yl)methyl)piperazin-1-yl)-6-methyl-9H-pyrimido[4,5-b]indol-4-yl)-3-fluoro-2-methylphenyl)ethyl)-1,2,4-oxadiazole-3-carboxamide] | > 10000 nM | 1.05 nM
4 | COc1cc2c(cc1N1CCN(C3CCN(c4cccc(C5CCC(=O)NC5=O)c4)C3)CC1)[nH]c1ncnc(-c3ccc([C@@H](C)NC(=O)c4noc(C(C)(C)C)n4)c(C)c3F)c12 (stereo partly drawn) [Example 61, 5-(tert-butyl)-N-((1R)-1-(4-(7-(4-(1-(3-(2,6-dioxopiperidin-3-yl)phenyl)pyrrolidin-3-yl)piperazin-1-yl)-6-methoxy-9H-pyrimido[4,5-b]indol-4-yl)-3-fluoro-2-methylphenyl)ethyl)-1,2,4-oxadiazole-3-carboxamide] | > 10000 nM | 5.52 nM
5 | Cc1cc(-c2ncnc3[nH]c4cc(N5CCC6(CC5)CCN([C@H]5C[C@@H](c7ccc([C@@H]8CCC(=O)NC8=O)cc7)C5)CC6)ccc4c23)ccc1[C@@H](C)NC(=O)c1nc(C(C)(C)C)no1 [Example 111, 3-(tert-butyl)-N—((R)-1-(4-(7-(9-((1R,3s)-3-(4-((S)-2,6-dioxopiperidin-3-yl)phenyl)cyclobutyl)-3,9-diazaspiro[5.5]undecan-3-yl)-9H-pyrimido[4,5-b]indol-4-yl)-2-methylphenyl)ethyl)-1,2,4-oxadiazole-5-carboxamide] | 1370 nM | 2.89 nM
6 | Cc1c([C@@H](C)NC(=O)c2noc(C(C)(C)C)n2)ccc(-c2ncnc3[nH]c4cc(N5CCC(CN6CCC(c7ccc(C8CCC(=O)NC8=O)cc7)CC6)CC5)ccc4c23)c1F (stereo partly drawn) [Example 36, 5-(tert-butyl)-N-((1R)-1-(4-(7-(4-((4-(4-(2,6-dioxopiperidin-3-yl)phenyl)piperidin-1-yl)methyl)piperidin-1-yl)-9H-pyrimido[4,5-b]indol-4-yl)-3-fluoro-2-methylphenyl)ethyl)-1,2,4-oxadiazole-3-carboxamide] | 3410 nM | 0.804 nM
7 | COc1cc2c(cc1N1CCN(Cc3ccc4c(c3)n(C)c(=O)n4C3CCC(=O)NC3=O)CC1)[nH]c1ncnc(-c3ccc([C@@H](C)NC(=O)c4nc(C(C)(C)C)no4)c(C)c3)c12 (stereo partly drawn) [Example 69, 3-(tert-butyl)-N-((1R)-1-(4-(7-(4-((1-(2,6-dioxopiperidin-3-yl)-3-methyl-2-oxo-2,3-dihydro-1H-benzo[d]imidazol-5-yl)methyl)piperazin-1-yl)-6-methoxy-9H-pyrimido[4,5-b]indol-4-yl)-2-methylphenyl)ethyl)-1,2,4-oxadiazole-5-carboxamide] | > 10000 nM | 0.266 nM
8 | COc1cc2c(cc1N1CCN(CC3CCN(c4ccc(N5CCC(=O)NC5=O)cc4)CC3)CC1)[nH]c1ncnc(-c3ccc([C@@H](C)NC(=O)c4nc(C5(C)CC5)no4)c(C)c3F)c12 [Example 53, (R)—N-(1-(4-(7-(4-((1-(4-(2,4-dioxotetrahydropyrimidin-1(2H)-yl)phenyl)piperidin-4-yl)methyl)piperazin-1-yl)-6-methoxy-9H-pyrimido[4,5-b]indol-4-yl)-3-fluoro-2-methylphenyl)ethyl)-3-(1-methylcyclopropyl)-1,2,4-oxadiazole-5-carboxamide] | > 10000 nM | 2.26 nM
9 | Cc1c([C@@H](C)NC(=O)c2nc(C3(C)CC3)no2)ccc(-c2ncnc3[nH]c4cc(N5CCN(C6CC(c7ccc([C@@H]8CCC(=O)NC8=O)cc7)C6)CC5)ccc4c23)c1F (stereo partly drawn) [Example 65, N—((R)-1-(4-(7-(4-(3-(4-((S)-2,6-dioxopiperidin-3-yl)phenyl)cyclobutyl)piperazin-1-yl)-9H-pyrimido[4,5-b]indol-4-yl)-3-fluoro-2-methylphenyl)ethyl)-3-(1-methylcyclopropyl)-1,2,4-oxadiazole-5-carboxamide] | > 10000 nM | 4.24 nM
10 | Cc1c([C@@H](C)NC(=O)c2noc(C(C)(C)C)n2)ccc(-c2ncnc3[nH]c4cc(N5CCN(Cc6ccc7c(c6)n(C6CCC(=O)NC6=O)c(=O)n7C)CC5)ccc4c23)c1F (stereo partly drawn) [Example 78, 5-(tert-butyl)-N-((1R)-1-(4-(7-(4-((3-(2,6-dioxopiperidin-3-yl)-1-methyl-2-oxo-2,3-dihydro-1H-benzo[d]imidazol-5-yl)methyl)piperazin-1-yl)-9H-pyrimido[4,5-b]indol-4-yl)-3-fluoro-2-methylphenyl)ethyl)-1,2,4-oxadiazole-3-carboxamide] | > 10000 nM | > 2000 nM
11 | Cc1cc(-c2ncnc3[nH]c4cc(N5CCN([C@H]6C[C@H](c7ccc(NC8CCC(=O)NC8=O)cc7)C6)CC5)ccc4c23)ccc1[C@@H](C)NC(=O)c1nc(C2(C)CC2)no1 (stereo partly drawn) [Example 116, N-((1R)-1-(4-(7-(4-((1r,3r)-3-(4-((2,6-dioxopiperidin-3-yl)amino)phenyl)cyclobutyl)piperazin-1-yl)-9H-pyrimido[4,5-b]indol-4-yl)-2-methylphenyl)ethyl)-3-(1-methylcyclopropyl)-1,2,4-oxadiazole-5-carboxamide] | > 10000 nM | 0.509 nM
12 | CC(C)(C)c1noc(C(=O)NCC2CCN(c3ncnc4[nH]c5cc(N6CCN(CC7CCN(c8ccc(N9CCC(=O)NC9=O)cc8)CC7)CC6)ccc5c34)CC2)n1 [Example 70, 3-(tert-butyl)-N-((1-(7-(4-((1-(4-(2,4-dioxotetrahydropyrimidin-1(2H)-yl)phenyl)piperidin-4-yl)methyl)piperazin-1-yl)-9H-pyrimido[4,5-b]indol-4-yl)piperidin-4-yl)methyl)-1,2,4-oxadiazole-5-carboxamide] | 1990 nM | 140 nM
13 | COc1cc2c(cc1N1CCN(Cc3ccc4c(c3)C3(CC3)C(=O)N4C3CCC(=O)NC3=O)CC1)[nH]c1ncnc(-c3ccc([C@@H](C)NC(=O)c4nc(C(C)(C)C)no4)c(C)c3)c12 (stereo partly drawn) [Example 76, 3-(tert-butyl)-N-((1R)-1-(4-(7-(4-((1′-(2,6-dioxopiperidin-3-yl)-2′-oxospiro[cyclopropane-1,3′-indolin]-5′-yl)methyl)piperazin-1-yl)-6-methoxy-9H-pyrimido[4,5-b]indol-4-yl)-2-methylphenyl)ethyl)-1,2,4-oxadiazole-5-carboxamide] | > 10000 nM | 1.6 nM
